Laboratory results taken from article PMC10046946, “Novel Phthalic-Based Anticancer Tyrosine Kinase Inhibitors: Design, Synthesis and Biological Activity” (Current Issues in Molecular Biology, 2023).
“Also recorded” adds a separate entry of the source.

Legend:
[1] = tested on: RPMI 1788 cells (B lymphocyte, human); experiment: MTT cell proliferation assay, normal RPMI 1788 cells; assay type: cell-based; settings: normal human lymphoblastoid cells RPMI 1788, 72 h of exposition, read-out: Anti-proliferative activity IC50, RPMI 1788
Outline: (§1)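 IC50 values come from an MTT proliferation assay; sorafenib, nilotinib and lapatinib served as reference standards.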

[2] = tested on: cancer cell lines (K562, HL-60, MCF-7, HepG2, A549, OKP-GS); experiment: MTT cell proliferation assay, statements over the whole cell line panel; assay type: cell-based; settings: statement over the cell line panel, studied concentration range up to 50 µM
Method: Tests to determine the effects of the synthesized compounds on cell viability and the half-maximal inhibitory concentration (IC50) were performed using the MTT assay, as described in our prior work.
The target compounds 5, 6, 8–12, 14, 15, 17–22 and 24–26 were tested for antiproliferative activity against six cancer cell lines: K562 (chronic myelogenous leukemia), HL-60 (promyelocytic leukemia), MCF-7 (breast adenocarcinoma), HepG2 (human liver cancer), A549 (lung carcinoma) and OKP-GS (renal cell carcinoma). The RPMI 1788 cells (B lymphocyte, human) were used as a control to evaluate the system toxicity of the studied compounds to normal cells. Sorafenib, nilotinib and lapatinib were utilized as reference standards for comparison.

[3] = tested on: OKP-GS (renal cell carcinoma); experiment: MTT cell proliferation assay, OKP-GS; assay type: cell-based; settings: 72 h of exposition, read-out: Anti-proliferative activity IC50, OKP-GS
Outline: as §1

[4] = tested on: MCF-7 (breast adenocarcinoma); experiment: MTT cell proliferation assay, MCF-7; assay type: cell-based; settings: Homo sapiens, MCF7, MCF-7, 72 h of exposition, read-out: Anti-proliferative activity IC50, MCF-7
Outline: as §1

[5] = tested on: HepG2 (human liver cancer); experiment: MTT cell proliferation assay, HepG2; assay type: cell-based; settings: Homo sapiens, HepG2, 72 h, HepG2, 72 h of exposition, read-out: Anti-proliferative activity IC50, HepG2
Outline: as §1

[6] = tested on: K562 (chronic myelogenous leukemia); experiment: MTT cell proliferation assay, K562; assay type: cell-based; settings: Homo sapiens, K562, 72 h of exposition, read-out: Anti-proliferative activity IC50, K562
Outline: as §1

A549 (lung carcinoma) = experiment: MTT cell proliferation assay, A549; assay type: cell-based; settings: Homo sapiens, A549, 72 h of exposition, read-out: Anti-proliferative activity IC50, A549
Outline: as §1

[7] = tested on: HL-60 (promyelocytic leukemia); experiment: MTT cell proliferation assay, HL-60; assay type: cell-based; settings: Homo sapiens, HL-60, 72 h of exposition, read-out: Anti-proliferative activity IC50, HL-60
Outline: as §1

Aurora B = biological target: T1, Aurora B (Homo sapiens, UniProt Q96GD4); experiment: ADP-Glo kinase assay, Aurora B; assay type: biochemical
T1 construct: purchased Promega
Method: (§2) The ADP-Glo kinase assay (Promega, Madison, WI, USA) was used to screen compounds 5, 8–10, 14, 17, 19 and 24 for the tyrosine kinase (Kinase Selectivity Profiling System TK-1, Promega, Madison, WI, USA) and serine/threonine kinase (Kinase Selectivity Profiling System Other/CK-1, Promega, Madison, WI, USA) inhibition effects according to the manufacturer’s technical manual. The luminescence data were analyzed as described in our prior work.
(§3) The selectivity of the potential kinase inhibitor against a specific protein kinase or a specific family of kinases was investigated using the Kinase Selectivity Profiling System TK-1, Other/CK-1 and ADP-Glo™ Kinase assay kit (Promega, Madison, WI, USA).

PDGFRα = biological target: T2, PDGFRα (Homo sapiens, UniProt P16234); experiment: ADP-Glo kinase assay, PDGFRα; assay type: biochemical
T2 construct: purchased Promega
Outline: (§4)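 Inhibition is reported from ADP-Glo luminescence, which quantifies ADP generated by the kinase reaction; the enzymes came from a tyrosine kinase selectivity profiling system used under standard kit conditions.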

PDGFRβ = biological target: T3, PDGFRβ (Homo sapiens, UniProt P09619); experiment: ADP-Glo kinase assay, PDGFRβ; assay type: biochemical
T3 construct: purchased Promega
T3 sequence (P09619 33-1106): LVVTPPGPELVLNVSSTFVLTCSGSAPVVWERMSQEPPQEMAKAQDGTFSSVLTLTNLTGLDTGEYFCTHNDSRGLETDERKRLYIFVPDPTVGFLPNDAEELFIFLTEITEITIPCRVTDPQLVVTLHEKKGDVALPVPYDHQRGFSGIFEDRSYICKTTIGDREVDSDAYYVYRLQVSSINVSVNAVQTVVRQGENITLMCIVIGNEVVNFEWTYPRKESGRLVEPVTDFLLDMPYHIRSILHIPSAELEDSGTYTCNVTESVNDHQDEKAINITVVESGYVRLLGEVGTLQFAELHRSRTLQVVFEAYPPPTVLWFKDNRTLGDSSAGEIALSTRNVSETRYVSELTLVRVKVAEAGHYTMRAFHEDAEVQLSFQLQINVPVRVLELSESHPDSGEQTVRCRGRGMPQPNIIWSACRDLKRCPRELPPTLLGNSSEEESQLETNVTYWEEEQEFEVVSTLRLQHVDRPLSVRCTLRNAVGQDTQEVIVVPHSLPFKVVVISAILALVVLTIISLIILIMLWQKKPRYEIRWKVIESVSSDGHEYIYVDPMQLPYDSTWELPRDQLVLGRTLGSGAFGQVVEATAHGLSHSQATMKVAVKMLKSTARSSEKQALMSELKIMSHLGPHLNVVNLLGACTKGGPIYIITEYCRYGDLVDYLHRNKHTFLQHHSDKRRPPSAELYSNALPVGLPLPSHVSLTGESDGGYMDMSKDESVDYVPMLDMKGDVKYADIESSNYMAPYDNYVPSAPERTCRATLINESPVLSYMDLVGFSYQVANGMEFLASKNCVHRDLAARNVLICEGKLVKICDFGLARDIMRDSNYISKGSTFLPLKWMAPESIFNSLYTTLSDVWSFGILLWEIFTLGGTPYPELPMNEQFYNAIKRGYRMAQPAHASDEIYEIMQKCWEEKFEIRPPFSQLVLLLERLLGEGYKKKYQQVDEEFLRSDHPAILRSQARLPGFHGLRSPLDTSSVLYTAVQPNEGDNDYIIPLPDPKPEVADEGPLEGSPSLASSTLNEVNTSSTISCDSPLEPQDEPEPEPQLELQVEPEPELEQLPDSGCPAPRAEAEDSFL
Outline: as §4

KDR (VEGFR-2) = biological target: T4, KDR (VEGFR-2) (Homo sapiens, UniProt P35968); experiment: ADP-Glo kinase assay, KDR; assay type: biochemical
T4 construct: purchased Promega

EGFR = biological target: T5, EGFR (Homo sapiens, UniProt P00533); experiment: ADP-Glo kinase assay, EGFR; assay type: biochemical
T5 construct: purchased Promega

InsR (insulin receptor) = biological target: T6, InsR (insulin receptor) (Homo sapiens, UniProt P06213); experiment: ADP-Glo kinase assay, InsR; assay type: biochemical
T6 construct: purchased Promega
T6 sequence (P06213 28-1382): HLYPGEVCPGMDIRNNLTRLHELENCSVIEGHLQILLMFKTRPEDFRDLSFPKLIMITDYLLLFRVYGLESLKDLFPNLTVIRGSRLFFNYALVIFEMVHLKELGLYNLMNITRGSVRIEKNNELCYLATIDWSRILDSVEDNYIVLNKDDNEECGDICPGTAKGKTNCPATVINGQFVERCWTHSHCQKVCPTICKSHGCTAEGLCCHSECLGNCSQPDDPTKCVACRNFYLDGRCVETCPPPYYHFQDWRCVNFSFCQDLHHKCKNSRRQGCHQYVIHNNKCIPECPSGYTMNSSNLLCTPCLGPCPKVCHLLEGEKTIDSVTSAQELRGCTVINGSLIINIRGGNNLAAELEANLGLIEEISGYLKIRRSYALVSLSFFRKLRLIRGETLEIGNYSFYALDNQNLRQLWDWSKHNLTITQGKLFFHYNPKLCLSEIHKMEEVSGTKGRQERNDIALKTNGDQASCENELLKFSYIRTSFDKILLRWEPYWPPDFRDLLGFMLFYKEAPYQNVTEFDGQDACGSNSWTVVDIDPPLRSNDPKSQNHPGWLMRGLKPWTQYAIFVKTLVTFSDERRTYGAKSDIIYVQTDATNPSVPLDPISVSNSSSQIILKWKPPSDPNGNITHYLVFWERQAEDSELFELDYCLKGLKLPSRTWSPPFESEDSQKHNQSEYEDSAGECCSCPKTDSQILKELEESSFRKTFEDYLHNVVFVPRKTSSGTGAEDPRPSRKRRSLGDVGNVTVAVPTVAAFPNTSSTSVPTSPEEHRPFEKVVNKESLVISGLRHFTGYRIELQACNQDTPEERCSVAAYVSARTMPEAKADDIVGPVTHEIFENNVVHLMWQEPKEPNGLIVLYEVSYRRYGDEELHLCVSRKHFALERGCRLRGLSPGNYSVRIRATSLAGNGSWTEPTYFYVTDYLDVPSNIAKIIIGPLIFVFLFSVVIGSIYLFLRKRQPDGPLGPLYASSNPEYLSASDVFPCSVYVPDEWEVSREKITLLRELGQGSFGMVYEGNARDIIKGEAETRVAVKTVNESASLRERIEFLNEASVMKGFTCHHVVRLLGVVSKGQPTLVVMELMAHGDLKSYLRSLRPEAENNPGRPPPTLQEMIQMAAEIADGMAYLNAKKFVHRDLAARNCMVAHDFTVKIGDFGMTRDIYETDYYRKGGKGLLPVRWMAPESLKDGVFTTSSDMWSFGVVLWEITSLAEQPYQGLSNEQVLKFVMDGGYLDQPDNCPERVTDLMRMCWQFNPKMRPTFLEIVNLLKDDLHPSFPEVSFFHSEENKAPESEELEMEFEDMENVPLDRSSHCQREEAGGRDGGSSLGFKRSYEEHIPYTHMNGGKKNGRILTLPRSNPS
Method: as §2, §3

Aurora A = biological target: T7, Aurora A (Homo sapiens, UniProt O14965); experiment: ADP-Glo kinase assay, Aurora A; assay type: biochemical
T7 construct: purchased Promega
T7 sequence (O14965 1-403): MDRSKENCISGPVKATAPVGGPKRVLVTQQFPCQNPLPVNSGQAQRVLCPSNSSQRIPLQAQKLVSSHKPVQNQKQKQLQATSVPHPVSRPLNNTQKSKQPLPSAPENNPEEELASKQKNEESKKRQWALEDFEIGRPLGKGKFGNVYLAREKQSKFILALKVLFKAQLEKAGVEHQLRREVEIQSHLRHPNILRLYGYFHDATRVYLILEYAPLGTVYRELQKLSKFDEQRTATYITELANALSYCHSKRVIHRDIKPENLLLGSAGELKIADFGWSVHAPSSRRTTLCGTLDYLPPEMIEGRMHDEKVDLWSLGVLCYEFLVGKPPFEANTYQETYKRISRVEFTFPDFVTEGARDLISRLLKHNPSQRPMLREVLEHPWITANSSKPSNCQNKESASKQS
Method: as §2, §3

HER4 = biological target: T8, HER4 (Homo sapiens, UniProt Q15303); experiment: ADP-Glo kinase assay, HER4; assay type: biochemical
T8 construct: purchased Promega
T8 sequence (Q15303 26-1308): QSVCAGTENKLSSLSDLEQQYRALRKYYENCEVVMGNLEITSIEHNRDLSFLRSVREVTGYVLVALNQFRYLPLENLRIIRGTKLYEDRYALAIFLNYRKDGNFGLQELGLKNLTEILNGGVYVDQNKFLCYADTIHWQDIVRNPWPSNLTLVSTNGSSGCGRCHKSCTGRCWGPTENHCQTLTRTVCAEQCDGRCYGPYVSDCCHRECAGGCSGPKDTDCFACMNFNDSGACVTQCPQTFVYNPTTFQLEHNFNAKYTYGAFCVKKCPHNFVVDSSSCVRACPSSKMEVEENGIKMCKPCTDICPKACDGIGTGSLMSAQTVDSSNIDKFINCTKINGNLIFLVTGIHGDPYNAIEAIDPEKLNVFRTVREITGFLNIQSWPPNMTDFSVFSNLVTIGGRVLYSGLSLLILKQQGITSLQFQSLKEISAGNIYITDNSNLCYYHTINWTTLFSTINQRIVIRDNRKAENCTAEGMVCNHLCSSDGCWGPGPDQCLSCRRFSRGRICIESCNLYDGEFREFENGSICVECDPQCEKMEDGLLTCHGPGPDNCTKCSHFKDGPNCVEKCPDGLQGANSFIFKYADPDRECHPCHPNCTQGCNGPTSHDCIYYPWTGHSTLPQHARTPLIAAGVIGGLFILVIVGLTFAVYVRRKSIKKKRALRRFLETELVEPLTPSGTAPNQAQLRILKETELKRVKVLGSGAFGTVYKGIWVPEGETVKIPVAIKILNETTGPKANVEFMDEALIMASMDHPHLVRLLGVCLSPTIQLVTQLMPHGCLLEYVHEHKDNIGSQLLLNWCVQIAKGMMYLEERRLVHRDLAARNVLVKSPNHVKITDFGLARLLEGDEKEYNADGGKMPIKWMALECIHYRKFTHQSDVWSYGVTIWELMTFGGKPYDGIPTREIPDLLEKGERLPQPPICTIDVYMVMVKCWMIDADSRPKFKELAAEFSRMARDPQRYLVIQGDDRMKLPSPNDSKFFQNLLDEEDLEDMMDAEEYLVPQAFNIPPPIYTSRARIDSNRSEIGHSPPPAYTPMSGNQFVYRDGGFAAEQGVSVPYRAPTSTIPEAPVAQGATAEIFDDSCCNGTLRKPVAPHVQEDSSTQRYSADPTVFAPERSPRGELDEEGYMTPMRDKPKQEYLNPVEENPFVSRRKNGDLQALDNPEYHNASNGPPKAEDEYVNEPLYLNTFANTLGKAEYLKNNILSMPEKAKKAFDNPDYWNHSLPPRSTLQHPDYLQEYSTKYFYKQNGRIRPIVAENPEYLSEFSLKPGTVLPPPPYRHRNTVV
Method: as §2, §3

HER2 = biological target: T9, HER2 (Homo sapiens, UniProt P04626); experiment: ADP-Glo kinase assay, HER2; assay type: biochemical
T9 construct: purchased Promega
Method: as §2, §3

[8] = biological target: T10, IGF1R (insulin-like growth factor 1 receptor) (Homo sapiens, UniProt P08069); experiment: ADP-Glo kinase assay, IGF1R; assay type: biochemical
T10 construct: purchased Promega
T10 sequence (P08069 31-1367): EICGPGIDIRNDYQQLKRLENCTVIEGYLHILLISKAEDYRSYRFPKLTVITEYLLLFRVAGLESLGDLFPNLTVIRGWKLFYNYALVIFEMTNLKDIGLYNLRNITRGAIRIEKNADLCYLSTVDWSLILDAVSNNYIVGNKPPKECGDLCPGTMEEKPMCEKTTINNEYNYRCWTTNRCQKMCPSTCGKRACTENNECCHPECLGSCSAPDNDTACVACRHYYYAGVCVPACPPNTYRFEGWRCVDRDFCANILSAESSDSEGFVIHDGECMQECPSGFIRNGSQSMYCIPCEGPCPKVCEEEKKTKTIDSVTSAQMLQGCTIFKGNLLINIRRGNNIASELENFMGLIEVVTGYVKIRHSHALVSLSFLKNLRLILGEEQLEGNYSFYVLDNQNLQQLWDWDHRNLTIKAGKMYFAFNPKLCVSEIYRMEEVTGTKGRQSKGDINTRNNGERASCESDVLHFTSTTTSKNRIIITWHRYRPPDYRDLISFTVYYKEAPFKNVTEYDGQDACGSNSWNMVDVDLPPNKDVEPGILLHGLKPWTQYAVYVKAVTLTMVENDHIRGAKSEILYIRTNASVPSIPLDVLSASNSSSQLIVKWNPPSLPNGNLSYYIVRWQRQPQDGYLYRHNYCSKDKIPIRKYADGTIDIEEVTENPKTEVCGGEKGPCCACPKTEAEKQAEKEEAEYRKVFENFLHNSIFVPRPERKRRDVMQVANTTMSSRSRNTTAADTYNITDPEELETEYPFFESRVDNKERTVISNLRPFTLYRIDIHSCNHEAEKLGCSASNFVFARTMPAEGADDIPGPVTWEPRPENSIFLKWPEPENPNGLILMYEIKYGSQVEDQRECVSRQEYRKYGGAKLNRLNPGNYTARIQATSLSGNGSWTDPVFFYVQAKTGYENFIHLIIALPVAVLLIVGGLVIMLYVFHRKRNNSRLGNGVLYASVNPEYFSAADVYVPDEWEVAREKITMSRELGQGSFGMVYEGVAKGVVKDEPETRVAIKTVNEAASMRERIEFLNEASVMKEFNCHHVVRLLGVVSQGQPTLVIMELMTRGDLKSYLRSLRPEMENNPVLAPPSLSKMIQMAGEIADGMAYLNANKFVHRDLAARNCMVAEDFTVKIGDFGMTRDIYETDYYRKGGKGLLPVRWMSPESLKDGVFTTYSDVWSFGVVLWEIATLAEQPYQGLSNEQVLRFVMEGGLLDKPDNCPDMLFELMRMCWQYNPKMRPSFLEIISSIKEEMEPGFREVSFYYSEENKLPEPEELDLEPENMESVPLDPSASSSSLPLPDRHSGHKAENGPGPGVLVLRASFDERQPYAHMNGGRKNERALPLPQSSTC
Method: as §2, §3

K562 cells = experiment: Cell cycle analysis (propidium iodide, flow cytometry); assay type: cell-based; settings: 48 h
Method: Tumor cells were seeded on a 6-well plate at a density of 400,000 per well for K562. Test compounds 5, 14 and 15 were added at concentrations of 1, 5 and 10 μM in duplicate for 48 h. The methodology and analysis of the obtained data were performed as described in our prior work.
As shown above, compounds 5, 14 and 15 had significant antiproliferative activities, which is why their influences on the cell cycle and apoptosis level were determined, with the aim of understanding whether these effects are cytostatic or cytotoxic. In the cell cycle experiments, K562 cells were used. […] For the determination of changes in the distribution of cells in the phases of the cell cycle, the widely employed method of staining the cells with propidium iodide was used.

K562 cell line = experiment: ROS determination (DCFH-DA, flow cytometry); assay type: cell-based; settings: 48 h
Method: The redox status was assessed using the K562 cell line. […] Then, the cells were washed to remove the 2′,7′-dichlorodihydrofluorescein diacetate by centrifugation at 1000 rpm for 5 min. The measurements were conducted using a Cytomics FC500 Beckman Coulter flow cytometer (FL1 channel for DCF).

Row | IC50 [3] | IC50 [4] | IC50 [5] | IC50 [6] | IC50 (A549 (lung carcinoma)) | melting point | IC50 [7] | inhibition at 10 µM (PDGFRα) | inhibition at 10 µM (PDGFRβ) | inhibition at 10 µM (InsR (insulin receptor)) | inhibition at 10 µM (HER4) | inhibition at 10 µM (HER2) | inhibition at 10 µM [8] | Structure (SMILES) | IC50 [1] | Antiproliferative activity (IC50) over the studied cell cultures [2] | further results
1 | 27.5 ± 2.58 µM | > 50 µM | > 50 µM | > 50 µM | > 50 µM | 290 to 292 °C | > 50 µM |  |  |  |  |  |  | Cc1cn(-c2cc(NC(=O)c3cccc(C(=O)Nc4cc([N+](=O)[O-])ccc4C)c3)cc(C(F)(F)F)c2)cn1 [Compound 12, N1-(3-(4-methyl-1H-imidazol-1-yl)-5-(trifluoromethyl)phenyl)-N3-(2-methyl-5-nitrophenyl)isophthalamide] | 2.36 ± 1.13 µM | lack of sensitivity of the cancer cells in the studied concentration range | 
2 | > 50 µM | > 50 µM | > 50 µM | 15.6 µM | > 50 µM | 208 to 210 °C | > 50 µM | ≤ 20% | 15% | 0% | 0% | 13% | 0% | Cc1cn(-c2cc(NC(=O)c3ccc(C(=O)Nc4cccc(C(F)(F)F)c4)cc3)cc(C(F)(F)F)c2)cn1 [Compound 17, N1-(3-(4-methyl-1H-imidazol-1-yl)-5-(trifluoromethyl)phenyl)-N4-(3-(trifluoromethyl)phenyl)-terephthalamide] | > 50 µM | practically did not affect the cell lines’ viability; also recorded: almost no effect on the cell lines’ viability | inhibition at 10 µM (Aurora B): 0%; inhibition at 10 µM (KDR (VEGFR-2)): 0%; inhibition at 10 µM (EGFR): 0%; inhibition at 10 µM (Aurora A): 0%
3 | 7.32 ± 2.15 µM | 10.9 ± 0.34 µM | 27.1 ± 0.08 µM | 9.62 ± 1.56 µM | 18.6 ± 2.65 µM |  | 10.6 ± 1.02 µM | 2% | 10% | 0% | 100% | 76% | 0% | CS(=O)(=O)CCNCc1ccc(-c2ccc3ncnc(Nc4ccc(OCc5cccc(F)c5)c(Cl)c4)c3c2)o1 [Lapatinib, reference compound] | 9.31 ± 0.9 µM |  | IC50 ([2]; read-out: Antiproliferative activity (IC50) over the studied cell cultures): 2 to 27 µM; Apoptosis, % (cell cycle analysis) (K562 cells; K562, 1 µM): 14.74%; G1, % (K562 cells; K562, 1 µM): 34.47%; G2/M, % (K562 cells; K562, 1 µM): 52.23%; S, % (K562 cells; K562, 1 µM): 13.31%; Apoptosis, % (cell cycle analysis) (K562 cells; K562, 5 µM): 28.92%; G1, % (K562 cells; K562, 5 µM): 31.31%; G2/M, % (K562 cells; K562, 5 µM): 55.68%; S, % (K562 cells; K562, 5 µM): 13.02%; ROS Level, % of Control (K562 cell line; K562, 5 µM): 64.12 % of Control; ROS Level, % of Control (K562 cell line; K562, 10 µM): 72.23 % of Control; ROS Level, % of Control (K562 cell line; K562, 20 µM): 89.07 % of Control
